From US6608058B2, “6-methylnicotinamide derivatives as antiviral agents” (Dong Wha Pharm. Ind. Co., Ltd., priority 2000, dated 2003) come the findings set out here.

One experiment concerns HBV polymerase. The experiment in a line: Inhibitory effect on the in vitro activities of HBV polymerase in reverse transcription (ELISA-type). Type of experiment: biochemical. The source says:
The present inventors submitted application for a patent concerning HBV polymerase genetically expressed in and separated from E. coli, the process of its preparation, and the method to measure the enzyme activities (KR 94-3918, KR 96-33998). In the present experiments HBV polymerase was used which had been expressed in E. coli as stated above.
The method used in the present invention to measure in vitro reverse transcribing activities of HBV polymerase is as follows. Basic principles are the same as those for ELISA, nucleotides with biotin- or digoxigenin- group are included as substrates and anti-DIG antibodies attached to peroxidase enzyme recognize the polymerized substrates.
To the wells coated with streptavidin, 20 μl of HBV polymerase, 20 μl of reaction mixture (10 μM each of DIG-UTP and Biotin-UTP, 46 mM Tris-HCl, 266 mM KCl, 27.5 mM MgCl2, 9.2 mM DTT substrate/primer hybrid), and 20 μl of test compound (added to […]) were added and allowed to react at 22° C. for 15 hrs. During this reaction, HBV polymerase catalyzes DNA synthesis, and digoxigenin and biotin attached to nucleotides form bonds to streptavidin coated on the bottom of wells. When the reaction was done, each well was washed with 250 μl of cleaning buffer (pH 7.0) for 30 seconds, which was repeated five times to remove remaining impurities. 200 μl of anti-DIG-POD antibody was added to each well and allowed to react for 1 hr at 37° C., and the wells were washed with cleaning buffer to remove impurities. 200 μl each of ABTS™, a substrate of peroxidase, was then added and allowed to react at room temperature for 30 min. Absorbancy was measured at 405 nm using ELISA reader.
The inhibitory effects in HBV polymerase activities for reverse transcription were calculated using the group without test compound as a control and the results are shown in Table 1 as follows.
Background: In an ELISA, binding on a coated surface is turned into a signal by an enzyme label.

For experiment [1], the target named is T1, HIV reverse transcriptase (Human immunodeficiency virus type 1 group M subtype B, UniProt P04585).
T1 construct: purchased Boehringer Mannheim
The experiment in a line: Inhibitory effect on the in vitro HIV reverse transcriptase activity (non-radioactive RT assay kit). Type of experiment: biochemical. The following applies: for inhibition at 0.1 µg/mL: 0.1 μg/ml; for inhibition at 1 µg/mL: 1 μg/ml. Here is the method:
Non-radioactive reverse transcriptase assay kit (Boehringer Mannheim) was used in the measurement of in vitro transcriptase activities. 20 μl (40 ng) of HIV reverse transcriptase and 20 μl of reaction mixture containing matrix-primer hybrid poly(A)oligo(dT)15, DIG(digoxigenin)-dUTP, biotin-dUTP, dTTP were added to wells coated with streptavidin, and the test compounds prepared were also added at the final concentrations of 0.1 and 1 μ/ml and allowed to react at 37° C. for 1 hr. At this time, DNA is formed from RNA by the action of HIV reverse transcriptase, forming bonds with streptavidin coated on the bottom of wells through digoxigenin and biotin moieties attached to nucleotides.
When the reaction was completed, each well was washed with 250 μl of washing buffer (pH 7.0) for 30 sec. five times to remove remaining impurities. 200 μl of anti-DIG-POD […] was added to each well, then the mixture was allowed to react at 37° C. for 1 hr and washed as above to remove impurities. 200 μl of ABTS™, a substrate for peroxidase, was added to each well and the mixture was allowed to react at room temperature for 30 min. Absorbance at 405 nm was measured for each solution using ELISA reader to determine the inhibitory effect on the HIV reverse transcriptase activities. The percentage of inhibition in the activity of HIV reverse transcriptase was calculated using the group without test compound as control and the results are represented in Table 3.

Broadly, the inhibition is the percentage by which the read-out fell short of the control. In the case of `Cc1ccc(C(=O)NN2CCN(C)CC2)c(Nc2ccc3cn[nH]c3c2)n1` [Example 17, 2-(1H-6-indazolylamino)-6-methyl-N-(4-methyl-1-piperazinyl)nicotinamide], the “Inhibitory activity on HBV-RT (%)” value was 24% in the experiment on HBV polymerase (0.01 μg/ml), 56% with HBV polymerase (0.1 μg/ml) and 86% in the experiment with HBV polymerase (1 μg/ml). Further, the inhibition at 0.1 µg/mL in experiment [1] is 50%. Moreover, the inhibition at 1 µg/mL in experiment [1] is 84%.

Take `Cc1ccc(C(=O)NCCCn2ccnc2)c(Nc2ccc3cn[nH]c3c2)n1` [Example 20, N-[3-(1H-1-imidazolyl)propyl]-2-(1H-6-indazolylamino)-6-methylnicotinamide]: the “Inhibitory activity on HBV-RT (%)” value with HBV polymerase (0.01 μg/ml) was found to be 47%; in the experiment on HBV polymerase (0.1 μg/ml), 59%; in the experiment on HBV polymerase (1 μg/ml), 88%. The inhibition at 0.1 µg/mL in experiment [1] was found to be 47%. In addition, in experiment [1], the inhibition at 1 µg/mL amounted to 88%.

As to `Cc1ccc(C(=O)N(N)c2ccccn2)c(Nc2ccc3cn[nH]c3c2)n1` [Example 21, 2-(1H-6-indazolylamino)-6-methyl-N-(2-pyridyl)-3-pyridinecarbohydrazide], the “Inhibitory activity on HBV-RT (%)” value with HBV polymerase (0.01 μg/ml) is reported as 30%; in the experiment with HBV polymerase (0.1 μg/ml), 50%; in the experiment with HBV polymerase (1 μg/ml), 86%. Moreover, in experiment [1], the inhibition at 0.1 µg/mL stood at 49%. The inhibition at 1 µg/mL in experiment [1] was found to be 75%.
